# Literature values in patent US20180185484A1, “PREPARATION AND USE OF PLATELET PRODUCTS” (Cerus Corporation, priority 2015, published 2018).
# Tested on: T lymphocytes
# Conditions: treated platelet preparations, after photoactivation; Grass et al., 1998
structure (smiles),measurement,value
"Cc1oc2c(C)c3oc(=O)cc(C)c3cc2c1COCCN [amotosalen, 4′-(4-amino-2-oxa)butyl-4,5′,8-trimethylpsoralen]",reduction of viable T lymphocytes,greater than 5 logs
